The values below come from PubChem BioAssay (NCI).

Test systems include A498 renal; A549 NSCLC; DLD-1 colon; DMS 273 small cell lung; KM20L2 colon; M19-MEL melanoma; MALME-3M melanoma; OVCAR-3 ovarian; SNB-78 CNS; XF 498 CNS; DMS 114 small cell lung; P388 leukemia; P388/ADR leukemia; SN12K1 renal.
Common to all, as to experiment: NCI tumour cell line growth inhibition, 48 h

Several values for one entry are separate records, joined by “and”; a condition that tells them apart may be missing. Identical values can stand only once.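 Assay format: 96-well plates, 48-hour exposure. At the GI50, growth is halved. Definition used: TGI = concentration required for complete inhibition of growth.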

Regarding `Nc1cccc2c1C(=O)c1cccc(N)c1C2=O`, the TGI in the assay on A498 renal, in the assay on A549 NSCLC, with DLD-1 colon, with DMS 273 small cell lung, with KM20L2 colon and in the assay on M19-MEL melanoma was over 100 µM throughout. Besides, the TGI is over 100 µM with MALME-3M melanoma, over 100 µM with OVCAR-3 ovarian, over 100 µM in the assay on SNB-78 CNS and 69.4 µM with XF 498 CNS.

`COC(=O)C1CCC(=O)N1C(=O)Cc1ccc(OC)cc1` (stereo unspecified): the TGI with A498 renal, in the assay with A549 NSCLC, in the assay on DMS 114 small cell lung, with DMS 273 small cell lung, in the assay with KM20L2 colon and in the assay on M19-MEL melanoma was over 100 µM throughout. For the same molecule, the TGI with OVCAR-3 ovarian, in the assay on SNB-78 CNS and with XF 498 CNS was over 100 µM in each case.

`[Cl][Pt+2][Cl].[NH-]C1CCCCC1[NH-]` (stereo unspecified): the GI50 with A498 renal is > 100 µM and 12.6 µM; with KM20L2 colon it was 8.07 µM and 2.19 µM and 1.36 µM; in the assay on MALME-3M melanoma it was 10.2 µM and 3.39 µM and 1.14 µM; with OVCAR-3 ovarian, 9.42 µM and 6.62 µM and 2.98 µM; in the assay with P388/ADR leukemia, 4.69 µM and 2.22 µM and 0.629 µM; in the assay with SNB-78 CNS, 29 µM and 30 µM and 11.5 µM. Moreover, the TGI is > 100 µM and 65.3 µM with A498 renal; over 100 µM with A549 NSCLC; over 100 µM in the assay with DLD-1 colon; 44.6 µM and > 52.9 µM and 29.6 µM with KM20L2 colon; 23.9 µM and 25.7 µM and 10.6 µM with M19-MEL melanoma; 32.4 µM and 24 µM and 7.45 µM with MALME-3M melanoma. Also, the TGI with OVCAR-3 ovarian was > 59.4 µM and > 47.2 µM and 20.8 µM; in the assay with P388 leukemia it was 6.91 µM and 7.39 µM and 2.14 µM; in the assay with P388/ADR leukemia, 98.9 µM and > 100 µM and > 52.4 µM; in the assay on SN12K1 renal, over 100 µM; in the assay on SNB-78 CNS, over 100 µM.

As for `OCC1OC(n2cnc3cncnc32)C(O)C1O` (stereo unspecified), the TGI in the assay with A498 renal was 3.69 µM; with A549 NSCLC it was 5.8 µM; with DLD-1 colon, 1.82 µM; in the assay on DMS 114 small cell lung, 2.57 µM; in the assay with DMS 273 small cell lung, 2.38 µM; in the assay with KM20L2 colon it was 5.17 µM. For the same molecule, the TGI with M19-MEL melanoma is 14.1 µM; in the assay with MALME-3M melanoma, 4.73 µM; in the assay with OVCAR-3 ovarian, 4.94 µM; with P388 leukemia, 1.59 µM; in the assay with P388/ADR leukemia it was 1.46 µM; with SN12K1 renal, 3.49 µM. Moreover, in the assay with SNB-78 CNS, the TGI was found to be 39.1 µM.

In the case of `Cc1ccccc1-n1c(C)nc2c1C(=O)c1ccccc1C2=O`, the TGI with A498 renal is over 100 µM; in the assay with A549 NSCLC it was over 100 µM; with DMS 114 small cell lung, 87 µM; with DMS 273 small cell lung it was over 100 µM; in the assay with M19-MEL melanoma, 48.5 µM; with MALME-3M melanoma it was 41.3 µM. Also, the TGI is 61.8 µM in the assay with OVCAR-3 ovarian and over 100 µM in the assay on SNB-78 CNS.

As to `Cc1ccc(C(C)(C)C[P+](C)(c2ccccc2)c2ccccc2)cc1`, the TGI in the assay with A498 renal was over 100 µM; in the assay with A549 NSCLC, over 100 µM; with DLD-1 colon, over 100 µM; with DMS 114 small cell lung, 35.6 µM; in the assay on DMS 273 small cell lung it was 23.8 µM; with KM20L2 colon it was over 88.8 µM. Moreover, the TGI is over 89 µM in the assay with M19-MEL melanoma; over 48.8 µM in the assay with MALME-3M melanoma; 22.2 µM in the assay on OVCAR-3 ovarian; 12.3 µM in the assay on P388 leukemia; over 100 µM in the assay with P388/ADR leukemia; over 90.7 µM with SN12K1 renal. Also, the TGI is 88.1 µM in the assay on SNB-78 CNS and 12.9 µM in the assay with XF 498 CNS.
